Test systems include A498 renal; HCT-15 colon; HOP-92 NSCLC; IGROV1 ovarian; MALME-3M melanoma; MOLT-4 leukemia; NCI-H460 lung; OVCAR-5 ovarian; RXF 393 renal; SK-MEL-2 melanoma; SK-OV-3 ovarian; SW-620 colon.
Assay in all cases: NCI tumour cell line growth inhibition, 48 h

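These data come from cells grown in 96-well plates and exposed to compound for 48 hours at five concentrations. TGI marks complete inhibition of growth.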

Turning to `CC(C)=CCCC(C)CCOS(=O)C(F)(F)F` (configuration not stated), the TGI was 63.7 µM with A498 renal; 11.5 µM with HCT-15 colon; more than 100 µM in the assay on HOP-92 NSCLC; 74.6 µM in the assay with IGROV1 ovarian; 18.9 µM in the assay with MALME-3M melanoma; 24.2 µM with MOLT-4 leukemia. For the same compound, the TGI with NCI-H460 lung is 46.3 µM; with OVCAR-5 ovarian it was 47.8 µM; in the assay with RXF 393 renal, 7.57 µM; with SK-MEL-2 melanoma, 36.5 µM; in the assay with SK-OV-3 ovarian, more than 100 µM; in the assay on SW-620 colon it was more than 100 µM.
For `CCOP(=O)(OCC)C(C(=O)OC)C(=O)C(=O)Nc1cccc(O)c1` (configuration not stated), the TGI in the assay with A498 renal, in the assay on HCT-15 colon, in the assay with HOP-92 NSCLC, in the assay on IGROV1 ovarian, in the assay with MALME-3M melanoma and with MOLT-4 leukemia was more than 100 µM each time. Moreover, the TGI in the assay on NCI-H460 lung, in the assay with OVCAR-5 ovarian, in the assay with RXF 393 renal, with SK-MEL-2 melanoma, in the assay on SK-OV-3 ovarian and in the assay on SW-620 colon was more than 100 µM throughout.
Regarding `CCCCCc1c(CCCC)c(=O)[nH]c2nc(NC(=O)CCCC)ccc12`, the TGI in the assay on A498 renal, in the assay with HCT-15 colon, in the assay on HOP-92 NSCLC, with IGROV1 ovarian, with MALME-3M melanoma and in the assay with MOLT-4 leukemia was more than 100 µM in each case. Besides, the TGI in the assay with NCI-H460 lung, in the assay with OVCAR-5 ovarian, in the assay with RXF 393 renal, in the assay on SK-MEL-2 melanoma, with SK-OV-3 ovarian and in the assay with SW-620 colon was more than 100 µM in each case.
Consider `COc1ccccc1C(O)[C@@H]1C[C@@H]2[C@H]3CC[C@@](C)([C@@H]2O1)C3(C)C` (some centres not stated), for which the TGI came out at 29.5 µM with A498 renal; 57.7 µM in the assay on HCT-15 colon; 30.7 µM with HOP-92 NSCLC; 31.2 µM with IGROV1 ovarian; 30.2 µM with MALME-3M melanoma; 39 µM in the assay with MOLT-4 leukemia. The TGI with NCI-H460 lung amounted to 36.3 µM; with OVCAR-5 ovarian, 38.6 µM; with RXF 393 renal it was 32.6 µM; in the assay on SK-MEL-2 melanoma, 34.3 µM; in the assay with SK-OV-3 ovarian, 87.1 µM; in the assay on SW-620 colon, 37.9 µM.
Regarding `CCCCCCCCCOCC(COP(=O)([O-])OCC[N+](C)(C)C)OC` (configuration not stated), the TGI in the assay on A498 renal, in the assay with HCT-15 colon, with HOP-92 NSCLC, in the assay with IGROV1 ovarian, in the assay on MALME-3M melanoma and in the assay on MOLT-4 leukemia was more than 100 µM in each case. Moreover, the TGI in the assay with NCI-H460 lung, in the assay with OVCAR-5 ovarian, with RXF 393 renal, in the assay on SK-MEL-2 melanoma, with SK-OV-3 ovarian and with SW-620 colon was more than 100 µM in each case.
`O=C(/C=C/c1ccccc1)Nc1ccccc1SCCCCl`: the TGI in the assay on A498 renal was more than 29.5 µM; in the assay with HCT-15 colon, more than 100 µM; in the assay with HOP-92 NSCLC, more than 30.9 µM; in the assay with IGROV1 ovarian it was more than 51.5 µM; with MALME-3M melanoma, more than 100 µM; in the assay with MOLT-4 leukemia, more than 100 µM. Besides, the TGI in the assay with NCI-H460 lung is more than 82.2 µM; in the assay on OVCAR-5 ovarian, more than 100 µM; with RXF 393 renal it was 84.2 µM; in the assay with SK-MEL-2 melanoma it was more than 100 µM; in the assay on SK-OV-3 ovarian it was more than 100 µM; with SW-620 colon, more than 62.4 µM.
As to `C/C=C1\CN2CCc3c([nH]c4ccccc34)C2CC1CCO` (configuration not stated), the TGI in the assay on A498 renal, in the assay on HCT-15 colon, in the assay with HOP-92 NSCLC, in the assay on IGROV1 ovarian, with MALME-3M melanoma and in the assay with MOLT-4 leukemia was more than 100 µM throughout. Besides, the TGI in the assay with NCI-H460 lung, in the assay on OVCAR-5 ovarian, in the assay with RXF 393 renal, with SK-MEL-2 melanoma, in the assay on SK-OV-3 ovarian and with SW-620 colon was more than 100 µM in each case.
`[B-][P+](CC[P+]1([B-])[C@@H](C)[C@@H](O)[C@H](O)[C@@H]1C)(c1ccccc1)c1ccccc1OC` (some centres not stated): the TGI in the assay with A498 renal was found to be 32 µM; with HCT-15 colon, 33.3 µM; in the assay with HOP-92 NSCLC, 33 µM; in the assay with IGROV1 ovarian it was 31.3 µM; in the assay on MALME-3M melanoma, 24.4 µM; in the assay on MOLT-4 leukemia, 41.7 µM. In addition, the TGI in the assay with NCI-H460 lung worked out at 32 µM; in the assay on OVCAR-5 ovarian, 32 µM; in the assay with RXF 393 renal, 31.2 µM; in the assay on SK-MEL-2 melanoma, 30.2 µM; in the assay with SK-OV-3 ovarian it was 37.6 µM; with SW-620 colon it was 31.9 µM.
In the case of `CCOC(=O)/C=C(/C(=O)OCC)n1ccc(=O)n(Cc2cnnn2COCCOC(C)=O)c1=O`, the TGI with A498 renal was 65 µM; in the assay with HCT-15 colon it was 31 µM; in the assay on HOP-92 NSCLC it was 6.81 µM; in the assay on IGROV1 ovarian, 39.3 µM; with MALME-3M melanoma it was 26.3 µM; with MOLT-4 leukemia it was 23.4 µM. In addition, the TGI in the assay with NCI-H460 lung was more than 65 µM; in the assay with OVCAR-5 ovarian, 35.9 µM; with RXF 393 renal, 39 µM; in the assay on SK-MEL-2 melanoma it was 41.9 µM; with SK-OV-3 ovarian, more than 100 µM; in the assay with SW-620 colon it was 14.2 µM.
Turning to `O=C1CC(CC(=O)c2ccc(Br)cc2)C(=O)/C1=C(/O)c1ccc(Br)cc1` (configuration not stated), the TGI in the assay with A498 renal, in the assay with HCT-15 colon, with HOP-92 NSCLC, with IGROV1 ovarian, with MALME-3M melanoma and in the assay with MOLT-4 leukemia was more than 100 µM throughout. The TGI with NCI-H460 lung, in the assay on OVCAR-5 ovarian, in the assay on RXF 393 renal, with SK-MEL-2 melanoma, in the assay with SK-OV-3 ovarian and in the assay on SW-620 colon was more than 100 µM in each case.
Turning to `CC(C)C(OC(=O)c1ccc(NCC2=CC(=O)C=CC2=O)cc1)C(C)C`, the TGI with A498 renal amounted to 31.9 µM; in the assay with HCT-15 colon it was 10.4 µM; in the assay with HOP-92 NSCLC it was 4.67 µM; in the assay with IGROV1 ovarian it was 5.14 µM; with MALME-3M melanoma it was 25.1 µM; in the assay with MOLT-4 leukemia, 7.12 µM. Further, the TGI in the assay on NCI-H460 lung is 32.6 µM; in the assay with OVCAR-5 ovarian, 36.4 µM; in the assay with RXF 393 renal it was 3.67 µM; in the assay with SK-MEL-2 melanoma, 27.3 µM; in the assay with SK-OV-3 ovarian it was 42.1 µM; in the assay with SW-620 colon, 27.4 µM.
